US20230346831A1, “METHODS FOR TREATING […] USING LOW DOSE CARBON MONOXIDE” (priority 2020, published 2023)

How the values were obtained:
Type in all cases: cell-based, human
Conditions in all cases: 16 hours
[1] = test system: 22Rv1 cells; experiment: in vitro transwell migration assay
Text: (§1) MDA-MB-231/TGL cell lines was obtained from Dr. Joan Massagué (Minn, et al, J. Clin. Invest., 115:(1), 44-55 (2005)). CM cell line was obtained from Dr. Paolo Pozzilli (S. Kobayashi et al., Oncogenesis 8, 16 (2019)). MCF7 breast cancer cells and 8988T pancreatic cancer cells were infected with viruses carrying thymidine kinase/green fluorescent protein/luciferase fusion reporter (TGL), which was obtained from Drs. Inna Serganova and Ronald Blasberg (V. Ponomarev et al., European journal of nuclear medicine and molecular imaging 31, 740-751 (2004)). GFP-positive MCF7/TGL and […] cells were enriched by fluorescence-activated cell sorting. H1975, lung adenocarcinoma cell line, was obtained from ATCC (Manassas, VA). MCF7/TGL/pQ and MCF7/TGL/HA-Bcl-xL cell lines were generated by infecting MCF7/TGL cells with viruses carrying pQXCIP or pQXCIP-HA-Bcl-xL, and selected in the medium containing 0.5-1 µg/ml puromycin. Human CYP1B1cDNA (GeneScript) was transiently transfected into MCF7/TGL, MDA-MB-231/TGL, and 8988T/TGL with Lipofectamine 3000 according to the manufacture’s protocol (Invitrogen, Carlsbad, CA). Cells were treated with CO at 250 ppm for 16 hours. Control air condition was a regular cell culture incubator with 5% CO2. Cells were also treated with 30 µM Hemin (HY-19424, MedChemExpress, Monmouth Junction, NJ) in standard tissue culture incubator or 250 ppm CO.
(§2) 6.5 mm Transwell with 8.0 µm Pore Polycarbonate Membrane Insert (Corning, NY, Cat. No. 3422) was used for the cell migration assay (FIG. 1J). After 16 hours of incubation, cells migrated to the opposite side of the upper chambers were fixed with 4% paraformaldehyde, stained with 0.2% crystal violet for 30 min and counted in five fields under × 20 magnification. In parallel, cells were seeded on 24-well plates for proliferation assay. Cells for proliferation control were fixed with 4% paraformaldehyde, stained with 0.2% crystal violet for 30 min and lysed with methanol to release the crystal violet as described by M. Feoktistova, P. Geserick, & M. Leverkus, Cold Spring Harb Protoc 2016, pdb prot087379 (2016). The optical density was measured at 595 nm (OD595). To supplement heme/hemin in the transwell migration assay, 30 µM hemin (MedChemExpress, Monmouth Junction, NJ, Cat. No. HY-19424) was added to both the cell suspension in the upper chambers and the bottom wells.
(§3) To examine whether CO has an effect on tumor cell migration, in vitro transwell migration assays were performed. Various human cancer cell lines, including 3 types of breast cancer (ER^+: MCF7 cells, HER2^+: HCC1954 cells, triple-negative breast cancer (TNBC): MDA-MB-231 cells), pancreatic ductal adenocarcinoma (PDAC) (8988T cells), pancreatic neuroendocrine tumor (PNET) (CM cells), colon cancer (SW480 cells), prostate cancer (22Rv1 cells), liver cancer (HepG2 cells), and lung cancer (H1975 cells) were seeded in the upper chamber of 8-µm porous polycarbonate membranes. Cell migration through the transwell membrane along a serum gradient (Table 1) after 16 hours in the presence or absence of 250 ppm CO were measured.

[2] = test system: 8988T cells; experiment: in vitro transwell migration assay
Text: as §1, §2, §3

[3] = test system: CM cells; experiment: in vitro transwell migration assay
Text: as §1, §2, §3

[4] = test system: H1975 cells; experiment: in vitro transwell migration assay
Text: as §1, §2, §3

[5] = test system: HCC1954 cells; experiment: in vitro transwell migration assay
Text: as §1, §2, §3

[6] = test system: HepG2 cells; experiment: in vitro transwell migration assay
Text: as §1, §2, §3

[7] = test system: MCF7 cells; experiment: in vitro transwell migration assay
Text: as §1, §2, §3

[8] = test system: SW480 cells; experiment: in vitro transwell migration assay
Text: as §1, §2, §3

[9] = test system: MDA-MB-231 cells; experiment: in vitro transwell migration assay
Text: MDA-MB-231/TGL cell lines was obtained from Dr. Joan Massagué (Minn, et al, J. Clin. Invest., 115:(1), 44-55 (2005)). CM cell line was obtained from Dr. Paolo Pozzilli (S. Kobayashi et al., Oncogenesis 8, 16 (2019)). MCF7 breast cancer cells and 8988T pancreatic cancer cells were infected with viruses carrying thymidine kinase/green fluorescent protein/luciferase fusion reporter (TGL), which was obtained from Drs. Inna Serganova and Ronald Blasberg (V. Ponomarev et al., European journal of nuclear medicine and molecular imaging 31, 740-751 (2004)). GFP-positive MCF7/TGL and 8999T/TGL cells were enriched by fluorescence-activated cell sorting. H1975, lung adenocarcinoma cell line, was obtained from ATCC (Manassas, VA). […]
6.5 mm Transwell with 8.0 µm Pore Polycarbonate Membrane Insert (Corning, NY, Cat. No. 3422) was used for the cell migration assay (FIG. 1J). After 16 hours of incubation, cells migrated to the opposite side of the upper chambers were fixed with 4% paraformaldehyde, stained with 0.2% crystal violet for 30 min and counted in five fields under × 20 magnification. […] The optical density was measured at 595 nm (OD595). […]
To examine whether CO has an effect on tumor cell migration, in vitro transwell migration assays were performed. […] Cell migration through the transwell membrane along a serum gradient (Table 1) after 16 hours in the presence or absence of 250 ppm CO were measured. […]

[10] = test system: 22Rv1 cells; experiment: proliferation assay (crystal violet, OD595)
Protocol: (§4) Proliferation of different cancer cells under control air or 250 ppm CO treatment with or without supplement of 30 µM hemin was determined. Indicated cell lines cell lines were seeded in the 24-well plate in normal growth media. 16 hours later, cells were fixed, stained with crystal violet, and lysed by methanol. OD595 were measured from triplicates of each cell type. Error bars represent SEM. *: P < 0.05, two-sided t-test. Scale bar, 100 µm.
as §2, §3

[11] = test system: 8988T cells; experiment: proliferation assay (crystal violet, OD595)
Protocol: as §4, §2, §3

[12] = test system: CM cells; experiment: proliferation assay (crystal violet, OD595)
Protocol: as §4, §2, §3

[13] = test system: H1975 cells; experiment: proliferation assay (crystal violet, OD595)
Protocol: as §4, §2, §3

[14] = test system: HCC1954 cells; experiment: proliferation assay (crystal violet, OD595)
Protocol: as §4, §2, §3

[15] = test system: HepG2 cells; experiment: proliferation assay (crystal violet, OD595)
Protocol: as §4, §2, §3

[16] = test system: MCF7 cells; experiment: proliferation assay (crystal violet, OD595)
Protocol: as §4, §2, §3

[17] = test system: SW480 cells; experiment: proliferation assay (crystal violet, OD595)
Protocol: as §4, §2, §3

[18] = 250 ppm CO, serum gradient, vs control air
[19] = 30 µM hemin in upper and lower chambers + 250 ppm CO
[20] = 30 µM hemin, with or without 250 ppm CO

For `[C-]#[O+]` [CO, Carbon monoxide], the “cell migration through the transwell membrane” value [1, 18] was “significantly reduced”, the “cell migration through the transwell membrane” value [2, 18] was “significantly reduced” and the “cell migration through the transwell membrane” value [3, 18] was “significantly reduced”. The “cell migration through the transwell membrane” value [4, 18] was “significantly reduced”, the “cell migration through the transwell membrane” value [5, 18] was “significantly reduced” and the “cell migration through the transwell membrane” value [6, 18] was “significantly reduced”. For the same compound, the “cell migration through the transwell membrane” value ([7]; MCF7 cells, 250 ppm CO, serum gradient, vs control air) was “significantly reduced”, the “cell migration through the transwell membrane” value [8, 18] was “significantly reduced” and the “cell migration through the transwell membrane” value ([9]; MDA-MB-231 cells, 250 ppm CO, serum gradient, vs control air) was “significantly reduced”. The cell proliferation ([10]; 250 ppm CO, vs control air) was “did not affect”, the cell proliferation ([11]; 250 ppm CO, vs control air) was “did not affect” and the cell proliferation ([12]; 250 ppm CO, vs control air) was “did not affect”. The cell proliferation ([13]; 250 ppm CO, vs control air) was “did not affect”, the cell proliferation ([14]; 250 ppm CO, vs control air) was “did not affect” and the cell proliferation ([15]; 250 ppm CO, vs control air) was “did not affect”. For the same compound, the cell proliferation ([16]; MCF7 cells, 250 ppm CO, vs control air) was “did not affect” and the cell proliferation ([17]; 250 ppm CO, vs control air) was “did not affect”.

In the case of Hemin [reference compound], the “cell migration inhibited by 250 ppm CO (reversal by hemin)” value (shortened to “cell migration inhibited by 250 ppm CO”) [1, 19] is reported as “significantly reversed”, the “cell migration inhibited by 250 ppm CO” value [2, 19] is reported as “significantly reversed” and the “cell migration inhibited by 250 ppm CO” value [3, 19] is reported as “significantly reversed”. The “cell migration inhibited by 250 ppm CO” value [4, 19] was “significantly reversed”, the “cell migration inhibited by 250 ppm CO” value [5, 19] was “significantly reversed” and the “cell migration inhibited by 250 ppm CO” value [6, 19] was “significantly reversed”. The “cell migration inhibited by 250 ppm CO” value ([7]; MCF7/TGL cells, 30 µM hemin in upper and lower chambers + 250 ppm CO) was “significantly reversed”, the “cell migration inhibited by 250 ppm CO” value [8, 19] was “significantly reversed” and the “cell migration inhibited by 250 ppm CO” value ([9]; MDA-MB-231/TGL cells, 30 µM hemin in upper and lower chambers + 250 ppm CO) was “significantly reversed”. For the same compound, the “cancer cell proliferation with hemin supplement” value (from here on “cancer cell proliferation”) [10, 20] was “did not alter”, the “cancer cell proliferation” value [11, 20] was “did not alter” and the “cancer cell proliferation” value [12, 20] was “did not alter”. For the same compound, the “cancer cell proliferation” value [13, 20] was “did not alter”, the “cancer cell proliferation” value [14, 20] was “did not alter” and the “cancer cell proliferation” value [15, 20] was “did not alter”. For the same compound, the “cancer cell proliferation” value ([16]; MCF7/TGL cells, 30 µM hemin, with or without 250 ppm CO) was “did not alter” and the “cancer cell proliferation” value [17, 20] was “did not alter”.
